From the Deep4Chem optical property database
Where “and” joins values, the source holds several entries; their conditions need not be identical. Equal values may be shown once. Values belong to the compound of their own block, whether it stands above or below them.

Assay: solvent given as SMILES

SMILES: CCC1(CC)c2cc(-c3ccc4c(c3)C(CC)(CC)c3cc(C(C)(C)C)ccc3-4)ccc2-c2ccc(-c3ccc4c(c3)C(CC)(CC)c3cc(C(C)(C)C)ccc3-4)cc21
fluorescence lifetime (in CCCCC): 0.72 ns
fluorescence lifetime (in CCCCCC): 0.67 ns
fluorescence lifetime (in CCCCCCC): 0.67 ns
fluorescence lifetime (in CCCCCCCC): 0.7 ns
fluorescence lifetime (in CCCCCCCCC): 0.7 ns
fluorescence lifetime (in CCCCCCCCCC): 0.71 ns
fluorescence lifetime (in CCCCCCCCCCCC): 0.74 ns
fluorescence lifetime (in CCCCCCCCCCCCC): 0.76 ns
fluorescence lifetime (in CCCCCCCCCCCCCCC): 0.75 ns
fluorescence lifetime (in CCCCCCCCCCCCCCCC): 0.75 ns
fluorescence lifetime (in CCCCCCCCCCO): 0.8 ns
fluorescence lifetime (in CCCCCCCCCO): 0.74 ns
fluorescence lifetime (in CCCCCCCCO): 0.75 ns
fluorescence lifetime (in CCCCCCCO): 0.75 ns
fluorescence lifetime (in CCCCCCO): 0.76 ns
fluorescence lifetime (in CCCCCO): 0.76 ns
fluorescence lifetime (in CCCCO): 0.78 ns
fluorescence lifetime (in CCCO): 0.8 ns
fluorescence lifetime (in CCO): 0.8 ns
fluorescence lifetime (in CO): 0.78 ns

SMILES: F[B-]1(F)OC(c2ccccc2)=Cc2cc(Cl)nc[n+]21
fluorescence lifetime (in Cc1ccccc1): 0.19 ns

SMILES: Cc1ccc(/C2=c3\cc/c(o3)=C(\c3ccc(C)cc3)c3ccc([nH]3)-c3ccc4n3[P-](=O)(=O)[N+]3=C(C=CC3=C4c3cccs3)c3ccc2[nH]3)cc1
fluorescence lifetime (in ClC(Cl)Cl): 4.3 ns

SMILES: CCCCCCCCN1c2ccc(C#Cc3ccc(C(F)(F)F)cc3)cc2Sc2cc(C=O)ccc21
fluorescence lifetime (in C1CCOC1): 8.1 ns
fluorescence lifetime (in CC#N): 6.52 ns
fluorescence lifetime (in CCCCCC): 6.45 ns
fluorescence lifetime (in CO): 4.04 ns
fluorescence lifetime (in CS(C)=O): 7.77 ns
fluorescence lifetime (in Cc1ccccc1): 7.43 ns
fluorescence lifetime (in ClC(Cl)Cl): 7.03 ns

SMILES: COc1cc(OC)cc(C2=[O+][B-](F)(F)OC(c3cccs3)=C2)c1
fluorescence lifetime (in ClCCl): 4.53 ns

SMILES: c1csc(-c2ccc(-c3cccs3)c3nsnc23)c1
fluorescence lifetime (in ClC(Cl)Cl): 10.2 ns

SMILES: c1ccc2c(c1)[nH]c1c3[nH]c4ccccc4c3c3nsnc3c21
fluorescence lifetime (in CN(C)C=O): 1.3 ns
fluorescence lifetime (in Cc1ccccc1): 1.02 ns
fluorescence lifetime (in ClCCl): 1.27 ns

SMILES: CCCN1C(=O)c2c3c(c4c(c2C1=O)CCc1cc(-c2ccc(N(C)C)cc2)c(OC)cc1-4)-c1cc(OC)c(-c2ccc(N(C)C)cc2)cc1CC3
fluorescence lifetime (in C1CCCCC1): 5.13 ns
fluorescence lifetime (in C1CCOC1): 0.93 ns
fluorescence lifetime (in CCOC(C)=O): 0.85 ns
fluorescence lifetime (in Cc1ccccc1): 5.64 ns
fluorescence lifetime (in ClCCl): 0.38 ns

SMILES: CC(C)c1cccc(C(C)C)c1N1C(=O)c2cc(Cl)c3c4c(Cl)cc5c6c(cc(Cl)c(c7c(Cl)cc(c2c37)C1=O)c64)C(=O)N(c1c(C(C)C)cccc1C(C)C)C5=O
fluorescence lifetime (in Cc1ccccc1): 5.11 ns

SMILES: F[B-]1(F)Oc2ccccc2-c2cc(-n3c4ccccc4c4ccccc43)cc[n+]21
fluorescence lifetime (in O=P(c1ccccc1)(c1ccccc1)c1ccccc1Oc1ccccc1P(=O)(c1ccccc1)c1ccccc1): 6.7 ns

SMILES: N#Cc1cccc2ccccc12
fluorescence lifetime (in C1CCCCC1): 15.9 ns
fluorescence lifetime (in C1CCOC1): 11 ns
fluorescence lifetime (in CCCCCCC): 17.7 ns
fluorescence lifetime (in CCCCOC(C)=O): 12.9 ns
fluorescence lifetime (in CCCOC(C)=O): 12.8 ns
fluorescence lifetime (in CCOC(C)=O): 11.9 ns
fluorescence lifetime (in CCOCC): 13.7 ns
fluorescence lifetime (in Cc1ccccc1): 12.8 ns

SMILES: Cc1ccc(-c2cc(-c3ccccc3)c(C#N)c(=S)[nH]2)cc1
fluorescence lifetime (in CC#N): 4.92 ns
fluorescence lifetime (in CCO): 4.79 ns
fluorescence lifetime (in ClC(Cl)(Cl)Cl): 1.22 ns

SMILES: Cc1cc(C)c(B2c3cc(C)ccc3N3c4ccc(C)cc4B(c4c(C)cc(C)cc4C)c4cc(C)cc2c43)c(C)c1
fluorescence lifetime (in Cc1ccccc1-c1cccc(Oc2cc3c4c(c2)Oc2cc(-c5ccccc5C)ccc2B4c2ccc(-c4ccccc4C)cc2O3)c1): 6.9 ns

SMILES: Cc1ccc(-c2cc(/C=C/c3ccc(N(c4ccccc4)c4ccccc4)cc3)c(-c3ccc(C)cc3)cc2/C=C/c2ccc(N(c3ccccc3)c3ccccc3)cc2)cc1
fluorescence lifetime (in ClCCl): 1.34 ns

SMILES: COc1ccc(/C=C/C=C/C=C/c2ccc([N+](=O)[O-])cc2)cc1
fluorescence lifetime (in C1CCOC1): 1.7 ns
fluorescence lifetime (in C1COCCO1): 1.9 ns
fluorescence lifetime (in CC1CCCCC1): 0.7 ns
fluorescence lifetime (in Cc1ccccc1): 1.5 ns

SMILES: c1ccc(-c2nc(-c3ccccc3)nc(-c3ccc(-n4c5ccccc5c5ccc6c7ccccc7n(-c7ccccc7)c6c54)cc3)n2)cc1
fluorescence lifetime (in O=P(c1ccccc1)(c1ccccc1)c1ccc2oc3ccc(P(=O)(c4ccccc4)c4ccccc4)cc3c2c1): 11.9 ns

SMILES: c1ccc(N(c2ccccc2)c2ccc(-c3ccc4c(c3)C3(c5cc(-c6ccc(N(c7ccccc7)c7ccccc7)cc6)ccc5O4)c4ccccc4-c4ccccc43)cc2)cc1
fluorescence lifetime (in ClCCl): 1.2 ns

SMILES: CC(=O)Nc1ccccc1C(=O)OC1CC(C)CCC1C(C)C (centres undefined)
fluorescence lifetime (in C1CCCCC1): 4 ns
fluorescence lifetime (in CC#N): 3.4 ns
fluorescence lifetime (in CCO): 3.6 ns
fluorescence lifetime (in Cc1ccccc1): 3.9 ns

SMILES: COc1ccc(-c2nc(C(C)=O)c(C)o2)cc1
fluorescence lifetime (in CC#N): 3.92 ns
fluorescence lifetime (in CCO): 2.31 ns
fluorescence lifetime (in CCOC(C)=O): 4.53 ns
fluorescence lifetime (in CCOCC): 1.79 ns
fluorescence lifetime (in ClCCl): 1.7 ns

SMILES: CC1(CCCCC(=O)NCCCCCCO)C(/C=C/C=C/C=C2/N(CCCS(=O)(=O)[O-])c3ccc(S(=O)(=O)[O-])cc3C2(C)C)=[N+](CCCS(=O)(=O)[O-])c2ccc(S(=O)(=O)[O-])cc21 (centres undefined)
fluorescence lifetime (in O): 1 ns

SMILES: O=C1O[B-]2(OC1=O)OC(c1ccc3ccccc3c1)=CC(c1ccc3ccccc3c1)=[O+]2
fluorescence lifetime (in CC#N): 4.6 ns
fluorescence lifetime (in ClC(Cl)(Cl)Cl): 1.8 ns

SMILES: CC(C)(C)c1ccc(-c2c3cccc4c(-c5ccccc5)cc5c(-c6ccc(C(C)(C)C)cc6)c6cccc7c(-c8ccccc8)cc2c(c76)c5c43)cc1
fluorescence lifetime (in ClCCl): 2.98 ns

SMILES: c1ccc(-c2ccc(-c3ccc(-c4ccccc4)cc3)cc2)cc1
fluorescence lifetime (in C1CCCCC1): 0.8 ns
fluorescence lifetime (in C1CCOC1): 1 ns

SMILES: C[n+]1ccc(-c2cc[n+](C)cc2)cc1
fluorescence lifetime (in CC#N): 0.9 ns

SMILES: CCc1c(C)[nH]c(C2=[N+]3C(=Cc4c(C)c(CC)c(C)n4[B-]3(F)F)c3ccccc32)c1C
fluorescence lifetime (in ClCCl): 6.3 ns

SMILES: c1ccc(/C(=C(\c2ccccc2)c2ccccc2-c2ccccc2)c2ccccc2-c2ccccc2)cc1
fluorescence lifetime (in C1CCOC1): 4.7 ns

SMILES: c1csc(-c2ccc(-c3cccs3)s2)c1
fluorescence lifetime (in CC#N): 0.2 ns
fluorescence lifetime (in ClCCl): 0.17 ns

SMILES: CN1C(=CC=Cc2nc3nc4ccccc4nc3s2)C(C)(C)c2ccccc21
fluorescence lifetime (in CCCCCCC(C)O): 1.04 ns
fluorescence lifetime (in CCOC(C)=O): 0.92 ns
fluorescence lifetime (in CO): 0.18 ns
fluorescence lifetime (in CS(C)=O): 1.04 ns
fluorescence lifetime (in Cc1ccccc1): 0.11 ns
fluorescence lifetime (in ClC(Cl)Cl): 1.08 ns
fluorescence lifetime (in ClCCl): 0.99 ns

The next lines start with the values.

fluorescence lifetime (in C1CCCCC1): 17.6 ns
fluorescence lifetime (in CC#N): 24.2 ns
fluorescence lifetime (in CO): 21.5 ns
fluorescence lifetime (in ClCCl): 17.6 ns
SMILES: COc1c2ccccc2c(OC)c2c1c1c(C)ccc(OC)c1n2C

fluorescence lifetime (in ClCCl): 5.4 ns
SMILES: CCCCCCOc1cc(C=C2C(=O)c3ccccc3C2=O)c(OCCCCCC)cc1C=C1C(=O)c2ccccc2C1=O

fluorescence lifetime (in CC#N): 3.9 ns
SMILES: Cc1cc(C)c2nc3c(=O)n(C)c(=O)nc-3n(C)c2c1

fluorescence lifetime (in CCCCCCC): 4.3 ns
SMILES: c1ccc(Nc2nc(Nc3ccccc3)nc(Nc3ccc4ccc5cccc6ccc3c4c56)n2)cc1

fluorescence lifetime (in C1CCCCC1): 61 ns
SMILES: C[SiH](C)c1cccc2ccccc12

fluorescence lifetime (in C1CCOC1): 3.42 ns
SMILES: COc1cc2c(cc1-c1ccsc1)Cc1c3c(c4c(c1-2)-c1cc(OC)c(-c2ccsc2)cc1C4)C(=O)N(CCC(C)C)C3=O

fluorescence lifetime (in CC#N): 0.35 ns
fluorescence lifetime (in CCO): 4.2 ns
fluorescence lifetime (in CCOC(C)=O): 0.066 ns
fluorescence lifetime (in CO): 6.7 ns
fluorescence lifetime (in ClC(Cl)Cl): 0.57 ns
fluorescence lifetime (in OCC(F)(F)F): 13 ns
SMILES: COc1ccc2cc3c(C)cc(=O)oc3cc2c1

fluorescence lifetime (in C1CCCCC1): 2.38 ns
fluorescence lifetime (in CC1CCCCC1): 2.32 ns
fluorescence lifetime (in CC#N): 3.2 ns and 2.55 ns
fluorescence lifetime (in CCC(C)CC): 2.38 ns
fluorescence lifetime (in CCCCCC): 2.37 ns
fluorescence lifetime (in CCO): 2.5 ns
fluorescence lifetime (in CCOC(C)=O): 2.46 ns
SMILES: CCN(CC)c1ccc2cc(-c3nc4ccccc4s3)c(=O)oc2c1

fluorescence lifetime (in CO): 0.56 ns
fluorescence lifetime (in ClC(Cl)Cl): 4.05 ns
SMILES: CCN1C(=CC2=C([O-])C(=Cc3sc4ccccc4[n+]3CC)C2=O)Sc2ccccc21

fluorescence lifetime (in C1CCCCC1): 24.6 ns
fluorescence lifetime (in CC#N): 31.1 ns
fluorescence lifetime (in CO): 29.8 ns
fluorescence lifetime (in ClCCl): 27.6 ns
SMILES: COc1c2ccccc2c(OC)c2c1c1cc(C)ccc1n2C

fluorescence lifetime (in C1CCOC1): 0.42 ns
SMILES: O=C1/C(=C2\Nc3cc4ccc5cccc6ccc(c3C2=O)c4c56)Nc2cc3ccc4cccc5ccc(c21)c3c45

fluorescence lifetime (in C1CCOC1): 2.31 ns
fluorescence lifetime (in C1COCCO1): 2.36 ns
fluorescence lifetime (in CC#N): 2.38 ns
fluorescence lifetime (in CC(C)O): 1.86 ns
fluorescence lifetime (in CCO): 1.93 ns
fluorescence lifetime (in CCOC(C)=O): 2.27 ns
fluorescence lifetime (in CN(C)C=O): 2.4 ns
fluorescence lifetime (in CO): 1.62 ns
fluorescence lifetime (in CS(C)=O): 2.45 ns
fluorescence lifetime (in O): 3.16 ns
SMILES: NS(=O)(=O)c1ccc(N2N=C(c3ccc(O)cc3)CC2c2ccccc2)cc1 (centres undefined)

fluorescence lifetime (in ClCCl): 2.48 ns
SMILES: CCN(CC)c1ccc2c(c1)oc(=O)c1cnc3c(cnn3-c3ccccc3)c12

fluorescence lifetime (in CO): 0.21 ns
fluorescence lifetime (in ClC(Cl)Cl): 1.42 ns
SMILES: CN1C(=CC2=C([O-])C(=CC3=[N+](C)c4ccc(Cl)cc4C3(C)C)C2=O)C(C)(C)c2cc(Cl)ccc21

fluorescence lifetime (in ClCCl): 15.4 ns
SMILES: COc1ccc(-c2c3cc4ccccc4cc3c(-c3ccc(OC)cc3)c3cc4sc(C)cc4cc23)cc1

fluorescence lifetime (in ClC(Cl)Cl): 5.16 ns
SMILES: CC(C)n1c(=O)c2cc3ccc4cccc5ccc(c2c1=O)c3c45

fluorescence lifetime (in ClCCl): 7.1 ns
SMILES: Cc1cccc2[n+]1[B-](F)(F)n1c(c3cccc4cccc1c43)=N2

fluorescence lifetime (in ClCCl): 1.66 ns
SMILES: Cn1c(=O)cc(C(=O)c2ccccc2)c2sc(-c3ccc(C(F)(F)F)cc3)cc21

fluorescence lifetime (in ClC(Cl)Cl): 6.91 ns
SMILES: CCC[Si](CCC)(CCC)c1cc2ccc3cccc4ccc(c1C(=O)NC(C)(C)C)c2c34

fluorescence lifetime (in ClCCl): 0.58 ns
SMILES: COC(=O)c1[nH]c(-c2ccc(Br)cc2)c2nnc3ccc(OC)cc3c12

fluorescence lifetime (in CC1CCCCC1): 3.2 ns
fluorescence lifetime (in CC#N): 3 ns
SMILES: C(=C\c1c2ccccc2cc2ccccc12)/c1cnc2ccccc2c1

fluorescence lifetime (in ClCCl): 1.51 ns
SMILES: CCCCCCn1c2ccccc2c2cc(-c3ccc(-c4cc(-c5ccccn5)nc(-c5ccccn5)c4)cc3)ccc21

fluorescence lifetime (in C1CCOC1): 6.9 ns
SMILES: COc1ccc(C(=Cc2ccc(C#N)cc2)c2ccc(OC)cc2)cc1

fluorescence lifetime (in ClCCl): 1.22 ns
SMILES: Cc1c(C2=[N+]3C(=Cc4c(C)c5ccccc5n4[B-]3(F)F)c3ccccc32)[nH]c2ccccc12

fluorescence lifetime (in ClCCl): 0.42 ns
SMILES: CCCCC(CC)COc1ccc2nc(-c3ccc(-c4cccs4)s3)sc2c1 (centres undefined)

fluorescence lifetime (in CCO): 5.19 ns
fluorescence lifetime (in ClC(Cl)Cl): 3.16 ns
fluorescence lifetime (in ClCCl): 5.8 ns
SMILES: CCN(CC)c1ccc2c(-c3ccccc3C(=O)O)c3c([o+]c2c1)/C(=C/Nc1ccccc1)CCC3
